# In US20220098149A1, “METHOD FOR SYNTHESIS OF 9-CIS-BETA-CAROTENE AND FORMULATIONS THEREOF” (Ramot at Tel-Aviv University Ltd., priority 2016, published 2022):
# Experiment: Initial stability tests of synthetic/purified 9CBC
# Assay type: physicochemical
smiles,measurement,setting,value
"CC1=C(/C=C/C(C)=C\C=C\C(C)=C\C=C\C=C(C)\C=C\C=C(C)\C=C\C2=C(C)CCCC2(C)C)C(C)(C)CCC1 [9CBC, 9-cis-β-carotene]",Time to full decomposition,sensitive to oxygen and UV degradation,less than 24 hours
same,Stability of purified 9CBC,under vacuum or nitrogen flushing,unstable
